Data reported in publication PMC10247784, “Physiological activation of human and mouse bitter taste receptors by bile acids” (Communications Biology, 2023).

Biological target: T1, mouse Tas2r108 (Mus musculus, UniProt Q9JKT3)
T1 construct: expressed in transfected cells; host or cells: HEK293T-Gα16gust44
T1 sequence (Q9JKT3 1-297): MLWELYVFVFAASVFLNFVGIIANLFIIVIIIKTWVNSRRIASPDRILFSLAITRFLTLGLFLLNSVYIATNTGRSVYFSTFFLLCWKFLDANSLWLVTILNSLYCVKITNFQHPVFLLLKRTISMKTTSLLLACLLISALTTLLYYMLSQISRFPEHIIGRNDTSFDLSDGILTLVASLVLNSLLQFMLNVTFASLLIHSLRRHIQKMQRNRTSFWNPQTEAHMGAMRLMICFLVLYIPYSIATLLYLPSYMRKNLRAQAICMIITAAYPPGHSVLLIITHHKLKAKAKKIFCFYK
Experiment: Calcium imaging assay (FLIPR), HEK293T-Gα16gust44 cells transfected with mouse Tas2r108
Assay type: cell-based
Description: This set of bile acids was chosen because of their commercial availability in high purities, their diversity within the class of bile acids and their previous detection and quantitation in human blood. Stock solutions were prepared in DMSO.
As basal growth medium for the HEK293T-Gα16gust44 cell line[17],[59] served Dulbecco’s modified eagle medium (DMEM) (Thermo Fisher Scientific, Darmstadt, Germany) supplemented with 10 % fetal bovine serum (Sigma-Aldrich, Steinheim, Germany), 2 mM L-glutamine (Sigma-Aldrich, Steinheim, Germany), 100 units/ml penicillin (Sigma Aldrich, Steinheim, Germany) and 100 µg/ml streptomycin (Sigma Aldrich, Steinheim, Germany). Growth conditions were 37 °C, 5 % CO2 and saturated air-humidity[60].
HEK293T-Gα16gust44 cells were seeded on poly-D-lysine (10 µg/ml) coated 96-well plates to reach a confluence of 40-60 % the next day. For transient transfection 150 ng of plasmid DNA containing the receptor of interest and 0.3 µl lipofectamine 2000 (Thermo Fisher Scientific, Darmstadt, Germany) per well were used and transfection took place according to the manual of lipofectamine 2000. […] The empty vector DNA (mock) was transfected as negative control[14],[41].
Cells were loaded using the calcium-sensitive fluorescent dye Fluo-4-AM (Abcam, Cambridge, Great Britain) in the presence of 2.5 mM probenecid (Sigma-Aldrich, Steinheim, Germany) the day after transfection[13],[41]. 1 h after loading, cells were washed with C1 buffer using a BioTek Cell Washer, incubated in the dark for half an hour and washed again. For automated agonist application and measurement of fluorescence changes, a FLIPR^TETRA device (Molecular Devices, San José, United States) was used. Viability of cells was tested by application of 100 nM Somatostatin 14 (Bachem, Bubendorf, Switzerland)[42].
Measured data were negative control corrected by subtracting the signal of the mock-transfected cells and exported to Microsoft Excel using the FLIPR software ScreenWorks 4.2. In Microsoft Excel software, standardization of maximum fluorescence intensities to the basal fluorescence and normalization to the buffer-only control was done to calculate the relative fluorescence changes (ΔF/F).
Initial screening experiments performed in duplicate wells were confirmed by at least one replication and representative traces were selected for display. All dose-response relationships were determined by three independent experiments (biological replicates) performed in duplicates (technical replicates). Threshold concentrations, defined as lowest substance concentrations leading to statistically significant elevated fluorescence changes in receptor-transfected cells compared with empty vector-transfected cells, were determined using SigmaPlot with Student’s t-test to evaluate statistical significance (p < 0.01).

C[C@H](CCC(=O)O)[C@H]1CC[C@H]2[C@@H]3[C@H](O)C[C@@H]4C[C@H](O)CC[C@]4(C)[C@H]3C[C@H](O)[C@]12C [Cholic Acid, cholic acid]
RLU (Time 0 s): 0 RLU | RLU (Time 2 s): 6.931 RLU | RLU (Time 4 s): 8.7879 RLU | RLU (Time 6 s): 7.879 RLU | RLU (Time 8 s): 1.863 RLU | RLU (Time 12 s): 5.906 RLU | RLU (Time 14 s): 3.861 RLU | RLU (Time 16 s): 1.935 RLU | RLU (Time 18 s): -12.1137 RLU | RLU (Time 137.562 s): 234.064 RLU | RLU (Time 143.562 s): 197.377 RLU | RLU (Time 149.562 s): 197.423 RLU | RLU (Time 155.562 s): 210.935 RLU | RLU (Time 161.562 s): 218.751 RLU | RLU (Time 167.562 s): 184.375 RLU | RLU (Time 173.562 s): 173.738 RLU | RLU (Time 179.562 s): 175.807 RLU | RLU (Time 185.562 s): 185.91 RLU | RLU (Time 191.562 s): 162.947 RLU | RLU (Time 197.562 s): 167.018 RLU | RLU (Time 203.562 s): 164.056 RLU | RLU (Time 209.562 s): 161.279 RLU | RLU (Time 215.562 s): 154.776 RLU | RLU (Time 221.562 s): 158.451 RLU | RLU (Time 227.562 s): 139.492 RLU | RLU (Time 233.562 s): 152.204 RLU | RLU (Time 239.562 s): 73.7327 RLU | RLU (Time 245.562 s): 142.097 RLU | RLU (Time 293.562 s): 160.558 RLU | RLU (Time 299.562 s): 159.088 RLU | RLU (Time 305.562 s): 175.817 RLU | RLU (Time 311.562 s): 159.088 RLU | RLU (Time 317.562 s): 162.782 RLU | RLU (Time 323.562 s): 182.257 RLU | RLU (Time 329.562 s): 162.985 RLU | RLU (Time 335.562 s): 195.196 RLU | RLU (Time 341.562 s): 184.414 RLU | RLU (Time 347.562 s): 175.395 RLU | RLU (Time 353.562 s): 161.041 RLU | RLU (Time 359.562 s): 176.226 RLU | Activation threshold concentration Tas2r108 (p < 0.01 vs empty vector): 100 µM | RLU (time 18.797 s): 17.792 RLU | RLU (time 20.797 s): -23.002 RLU | RLU (time 22.797 s): -57.7927 RLU | RLU (time 24.797 s): -48.9168 RLU | RLU (time 26.797 s): -17.0044 RLU | RLU (time 28.797 s): 22.9392 RLU | RLU (time 30.797 s): 32.9758 RLU | RLU (time 32.797 s): 53.0645 RLU | RLU (time 34.797 s): 83.8222 RLU | RLU (time 36.797 s): 93.8063 RLU | RLU (time 38.797 s): 138.967 RLU | RLU (time 40.797 s): 140.665 RLU | RLU (time 42.797 s): 165.846 RLU | RLU (time 44.797 s): 192.868 RLU | RLU (time 46.797 s): 190.046 RLU | RLU (time 48.797 s): 199.412 RLU | RLU (time 50.797 s): 213.089 RLU | RLU (time 52.797 s): 215.082 RLU | RLU (time 54.797 s): 250.612 RLU | RLU (time 56.797 s): 250.502 RLU | RLU (time 58.797 s): 257.511 RLU | RLU (time 60.797 s): 256.774 RLU | RLU (time 62.797 s): 238.682 RLU | RLU (time 64.797 s): 249.009 RLU | RLU (time 66.797 s): 305.929 RLU | RLU (time 68.797 s): 280.306 RLU | RLU (time 70.797 s): 276.637 RLU | RLU (time 72.797 s): 284.565 RLU | RLU (time 74.797 s): 263.421 RLU | RLU (time 76.797 s): 265 RLU | RLU (time 78.797 s): 262.578 RLU | RLU (time 80.797 s): 288.384 RLU | RLU (time 82.797 s): 280.368 RLU | RLU (time 84.797 s): 274.722 RLU | RLU (time 86.797 s): 270.305 RLU | RLU (time 88.797 s): 275.266 RLU | RLU (time 90.797 s): 279.283 RLU | RLU (time 92.797 s): 261.98 RLU | RLU (time 94.797 s): 257.248 RLU | RLU (time 96.797 s): 285.43 RLU | RLU (time 98.797 s): 259.515 RLU | RLU (time 100.797 s): 270.732 RLU | RLU (time 102.797 s): 264.325 RLU | RLU (time 104.797 s): 245.741 RLU | RLU (time 106.797 s): 235.309 RLU | RLU (time 108.797 s): 255.707 RLU | RLU (time 110.797 s): 240.509 RLU | RLU (time 112.797 s): 233.706 RLU | RLU (time 114.797 s): 230.518 RLU | RLU (time 116.797 s): 242.495 RLU | RLU (time 118.797 s): 239.456 RLU | RLU (time 120.797 s): 255.452 RLU | RLU (time 122.797 s): 242.932 RLU | RLU (time 124.797 s): 218.082 RLU | RLU (time 126.797 s): 235.026 RLU | RLU (time 128.797 s): 232.943 RLU | RLU (time 130.797 s): 235.505 RLU | RLU (time 132.797 s): 229.818 RLU | RLU (time 134.797 s): 212.202 RLU | RLU (time 136.797 s): 197.953 RLU
